{"source": "patent US5298523A", "about": "“Method for treating transplant patients using mycalamide compounds” (priority 1992, dated 1994)", "key": {"[1]": {"test_system": "graft vs. host reaction, CB6F1 mice grafted with BALB/c splenocytes", "assay": "Graft vs. host reaction (Simonsen splenomegaly assay)", "assay_type": "in vivo, mouse", "settings": "Experiment #2, 0.2 mg/kg i.p., Days 1-7", "protocol": "Graft vs. host reaction. In vivo studies with mycalamide A utilized the […]→F1, GVHR model (Simonsen splenomegaly assay). CB6F1 male mice, 4 weeks of age, were injected intraperitoneally with 5×10^7 splenocytes from BALB/c male mice, 8 weeks of age, on day 0 (BALB/c→CB6F1). A syngeneic control group (CB6F1 →CB6F1) was similarly prepared and served as the negative control. For experiment 1, the grafted mice were divided into 5 treatment groups of 5 mice each. Groups were injected intraperitoneally with mycalamide A (dissolved initially in ethanol followed by dilution in sterile phosphate-buffered saline as a vehicle) or vehicle alone on days 1-7. For experiment 2, the grafted mice were divided into 7 treatment groups of 5 mice each and similarly injected intraperitoneally with mycalamide A, an immunosuppressive standard, didemnin B, or vehicle alone on days 1-7. On day 7 all groups were sacrificed, spleens excised, and the mean spleen weight and stimulation index calculated for each group. The stimulation index was calculated as follows: [formula] A spleen index of 1.3 or greater is considered a positive response.\n^a CB6F1 mice (5 per group) were grafted with 5 × 10^7\nBALB/c splenocytes, intraperitoneally on Day 0. Groups were injected\nintraperitoneally with drug or vehicle on Days 1-7. Positive indicates\ngrafted mice receiving vehicle alone.\n^b Number of surviving mice at the end of the experiment.\n^c Stimulation index (SI) = (spleen weight of test group/body weight\nof test group)/(spleen weight of syngeneic group/body weight of syngeneic\n^d Suppression = [(SI of positive control) (SI of test group)]/[(SI\nof positive control) (SI of syngeneic group)].\n^e Didemnin B immunosuppressive standard."}, "[2]": {"test_system": "murine CD4^+ T cells", "assay": "Activation of CD4+ T cells by anti-CD3 mAb/mB7", "assay_type": "cell-based, murine (BALB/c)", "settings": "anti-CD3/mB7", "protocol": "(§1) (A) Costimulation of T cells with anti-CD3 mAb and mB7. […] (B) Costimulation of T cells with mB7 and PMA. […] All cultures were incubated for 48 hours and pulsed with 1 μCi [ ^3 H] thymidine/well for the last 6 hours of the incubation period to assay for T cell proliferation.\n(§2) (A) Costimulation of T cells with anti-CD3 mAb and mB7. 2×10^5 purified BALB/c CD4^+ T lymphocytes were stimulated with the indicated concentrations of anti-CD3 mAb in the presence of medium (.largecircle.), 2×10^4 paraformaldehyde-fixed CHO-mB7 cells (.quadrature.), or 2×10^4 paraformaldehyde-fixed CHO-mB7 cells in the presence of 0.1 nM FK506 (.gradient.), 1 nM FK506 (Δ), or 10 nM FK506 ( ). (B) Costimulation of T cells with mB7 and PMA. 2×10^5 purified BALB/c CD4^+ T lymphocytes were stimulated with the indicated concentrations of PMA and either medium (.largecircle.), 2×10^4 paraformaldehyde-fixed CHO-mB7 cells (.quadrature.), or paraformaldehyde-fixed CHO-mB7 cells in the presence of 0.1 nM FK506 (.gradient.), 1 nM FK506 (Δ), or 10 nM FK506 ( ). All cultures were incubated for 48 hours and pulsed with 1 μCi [^3 H] thymidine/well for the last 6 hours of the incubation period to assay for T cell proliferation.\nas §2, with “pM mycalamide A” for “nM FK506”\nmB7-mediated activation of murine CD4^+ T cells. Mouse T cells were purified as follows: splenocytes were depleted of red blood cells by treatment with Tris-NH4 Cl. T cells were enriched by nylon wool fractionation. CD4^+ T cells from BALB/c mice were purified by two-fold treatment with a mixture of anti-MHC Class II and anti-CD8 monoclonal antibodies and rabbit complement. Chinese hamster ovary cells (CHO) and CHO cells transfected with the murine B7 molecule (CHOmB7) were fixed with 1% paraformaldehyde prior to addition to the cultures. Microcultures were set up in duplicate 96-well plates. […] All cultures were incubated for 48 hours and pulsed with 1 μCi ^3 H-thymidine/well for the last 6 hours of the incubation period to assay for T cell proliferation."}, "[3]": {"test_system": "murine CD4^+ T cells", "assay": "Activation of CD4+ T cells by PMA/mB7", "assay_type": "cell-based, murine (BALB/c)", "settings": "in words", "protocol": "as §1, §2\n(A) Costimulation of T cells with anti-CD3 mAb and mB7. […]"}, "[4]": {"assay": "T cell viability by trypan blue exclusion", "assay_type": "cell-based, murine", "settings": "t cells; 1 nM, Experiment 1, 20 hours; read-out: percentage of trypan blue-positive cells", "protocol": "(§3) Determination of mycalamide A toxicity. The toxicity of mycalamide A on murine splenocytes and human PBL was determined using a colorimetric assay, based on the ability of viable cells to convert the colorless tetrazolium salt, 3-(4,5-dimethylthiazol-2yl)-2,5-diphenyl tetrazolium bromide (MTT) to a colored formazan product and trypan blue exclusion. For the colorimetric assay, a volume of 0.075 ml of an MTT solution (550 μg/ml of MTT in TCM) was added to test and control wells containing one of the populations of splenocytes or test wells and incubated for 5-6 hours following the initial incubation period. Microtiter plates were centrifuged at 100× g, supernatants carefully removed, and a volume of 0.20 ml of isopropyl alcohol was added to each well to dissolve the formazan crystals. The absorbance at 570 nm was determined for each well using an ELISA plate reader. […] As an additional parameter of toxicity, wells containing cultured lymphocytes with various dilutions of mycalamide A were examined with trypan blue, and the percentage of dye-excluding (viable) cells was determined.\n(§4) Compounds were added as indicated. Cells were harveste\n(§5) Each data point represents the mean value o"}, "[5]": {"test_system": "T cells", "assay": "T cell viability by trypan blue exclusion", "assay_type": "cell-based, murine", "settings": "1 nM", "protocol": "as §3, §4, §5"}}, "note": "“Also recorded” adds a separate entry of the source.", "data": [{"smiles": "CC[C@H](C)[C@H]1NC(=O)[C@@H](NC(=O)[C@@H](CC(C)C)N(C)C(=O)[C@@H]2CCCN2C(=O)C(C)O)[C@@H](C)OC(=O)[C@H](Cc2ccc(OC)cc2)N(C)C(=O)[C@@H]2CCCN2C(=O)[C@H](CC(C)C)NC(=O)[C@@H](C)C(=O)[C@H](C(C)C)OC(=O)C[C@@H]1O", "note": "(stereo partly shown) [Didemnin B, didemnin B, reference compound]", "values": [{"measurement": "% Suppression", "setting": "[1]", "value": 113, "unit": "%"}, {"measurement": "Number of surviving mice at the end of the experiment", "setting": "[1]", "value": "5/5"}, {"measurement": "Stim. index", "setting": "[1]", "value": 0.93}]}, {"smiles": "C=CC[C@@H]1/C=C(\\C)C[C@H](C)C[C@H](OC)[C@H]2O[C@@](O)(C(=O)C(=O)N3CCCC[C@H]3C(=O)O[C@H](/C(C)=C/[C@@H]3CC[C@@H](O)[C@H](OC)C3)[C@H](C)[C@@H](O)CC1=O)[C@H](C)C[C@@H]2OC", "note": "[FK506, reference compound]", "values": [{"measurement": "potency compared to CsA", "setting": "[2]; FK506 vs CsA", "value": "approximately 100 times"}, {"measurement": "effect on anti-CD3/mB7 activation of CD4+ cells", "setting": "[2]; in words", "value": "parallel those of CsA; also recorded: blocks the anti-CD3/mB7 activation of CD4^+ cells"}, {"measurement": "effect on PMA/CHO-mB7 stimulation of CD4+ cells", "setting": "[3]", "value": "not affected"}, {"measurement": "cytotoxicity at 20 h, 0.001 µM", "setting": "[4]", "value": "< 2", "unit": "%"}, {"measurement": "number of cells excluding trypan blue", "setting": "[5]; Experiment 1, 20 hours", "value": "1.40 × 10^6 cells"}, {"measurement": "number of cells excluding trypan blue", "setting": "[5]; Experiment 2, 20 hours", "value": "1.64 × 10^6 cells"}, {"measurement": "percentage of trypan blue-positive cells", "setting": "[5]; Experiment 2, 20 hours", "value": "< 2", "unit": "%"}]}]}
